In patent US10980819B2, “High concentration formulation” (Cassiopea S.P.A., priority 2015, dated 2021):
Read-outs that look alike come from different tables or passages of the source. Each block holds one compound with its values, some of them ahead of it.

Legend:
[1] = Clinical evaluation, excretion parameters at 1st and 55th application (Example 6); assay type: in vivo, human; settings: for Analyte Excreted, Free / Analyte Excreted, Total: formulation of Example 4b on scalp
Method: The formulation described in Example 4b was studied in a clinical trial to evaluate its pharmacokinetic profile, safety, and tolerability. According to the study protocol, 1 ml of the formulation (corresponding to 50 mg of cortexolone-17α-propionate) was applied once a day on study day 1 and then twice daily thereafter on study days 2-28 to the areas of the scalp suffering from alopecia. Statistical analyses were performed using SAS® version 9.1.3, service pack 4 for Windows and Phoenix WinNonLin 6.3, Pharsight Corporation, USA.

[2] = Franz cell diffusion test 1 (Example 7); assay type: in vitro ADME; settings: for Permeation rate / Skin concentration: 48 h, saturated solution, 300 mg on 2.54 cm^2 skin, 32° C.
Method: In an in vitro study, the skin penetration potential of cortexolone-17α-propionate was compared to cyproterone acetate using a standard Franz cell. According to the protocol, 300 mg of each test formulations was applied as saturated solution with a concentration ranging from 0.7 to 1 weight (w/w) to 2.54 cm^2 of exposed skin area. The receptor chamber volume ranged from 4.75 ml to 6.4 ml of phosphate buffered saline/fetal calf serum (2:1) containing penicillin/streptomycin according to standard protocol, and was maintained at a temperature of 32° C.+/−1° C. Stirring was maintained at 300 rpm.
The experiments were conducted for 48 h in triplicate. 100 μl fractions were withdrawn at 5-7 time points during the 48 h test period. After withdrawing a 100 μl fraction for analysis, it was replaced with fresh receiver fluid in an equal volume. At the end of the experiment, the skin was taken from the Franz cells and the skin's stratum corneum was removed by tape stripping (20×) with transparent adhesive tape (Koren, Spain).
The strippings were analyzed by dissolution in a mixture of propylene glycol:oeyl alcohol 9:1. The resulting mixture was analyzed for concentration of cyproterone acetate and cortexolone-17α-propionate, with the results provided in Table 12, below.

[3] = Evaluation of cortexolone-17α-propionate solubility (Example 1); assay type: physicochemical; settings: 5 g in 100 ml
Method: 5 g of cortexolone-17α-propionate was added to 100 ml of each of the solvents or solvent mixtures shown in Table 1, below, in an effort to produce a 5% w/v solution of cortexolone-17α-propionate. In the examples in Table 1, ethanol refers to ethanol 96°.

AGA [4] = settings: cited from earlier work
[5] = tested on: serum DHT as well as scalp DHT; settings: single oral administration of finasteride 1 mg; cited from earlier work
AGA [6] = assay: Finasteride 1 mg tablets phase III clinical studies 087 and 089, published by the FDA (Example 11); assay type: in vivo, human; settings: original value divided by 5.1
Method: Based on the results of finasteride 1 mg tablets (PROPECIA®) described in the two Phase III clinical studies published online by the United States Food and Drug Administration (the FDA), it can be concluded that the mean change from baseline in non-vellus TAHC at month 6 for cortexolone-17α-propionate solution 5% (according to Example 4b), as reported in Example 9, is very similar to the mean change from baseline in non-vellus TAHC at month 6 observed in 2 phase III clinical trials on finasteride 1 mg tablets (tradename Propecia®) per os once daily. Table 20 below reports the change from baseline in TAHC at month 6 in the two finasteride studies (data of active finasteride groups) as described in the NDA for PROPECIA® published online by the FDA:
In the two finasteride studies, the target area was a 1-inch diameter circle, which corresponds to 5.1 cm^2. In order to compare the changes from baseline in TAHC at month 6 obtained in the finasteride studies and the change from baseline in TAHC at month 6 obtained with cortexolone-17α-propionate in the study of the present Example 9 (where the target area was 1 cm^2), the original finasteride data have been recalculated to take into account the differences between the total surfaces of the target areas (i.e., the values were divided by 5.1) as shown in Table 21.

[7] = PROPECIA package insert; 1 mg tablets; cited from earlier work
[8] = 1st Application (Day 1), N = 18
[9] = 55th Application (Day 28), N = 17

Analyte Excreted, Free [1, 8]: BLQL
Analyte Excreted, Total [1, 8]: 0.06 ± 0.26 µg
Analyte Excreted, Free [1, 9]: BLQL
Analyte Excreted, Total [1, 9]: 0.64 ± 0.74 µg
Structure (SMILES): C[C@]12CCC(=O)C=C1CC[C@@H]1[C@@H]2CC[C@@]2(C)[C@H]1CC[C@]2(O)C(=O)CO [Cortexolone, cortexolone]

% Excreted, Free [1, 8]: 0 ± 0%
% Excreted, Total [1, 8]: 0.25 ± 0.10%
Analyte Excreted, Free [1, 8]: 0.16 ± 0.34 µg
Analyte Excreted, Total [1, 8]: 126.37 ± 48.99 µg
Analyte Excreted, Free [1, 9]: 2.72 ± 1.54 µg
Analyte Excreted, Total [1, 9]: 429.53 ± 178.24 µg
Permeation rate [2]: 1410 ± 137 ng/mL/h
Skin concentration [2]: 231 ± 19 µg/g
permeates skin, times as much as cyproterone acetate ([2]; versus cyproterone acetate): about 3 times
permeation rate, times greater than cyproterone acetate ([2]; versus cyproterone acetate): about 10 times
Cortexolone-17α-propionate Solubility at Room Temperature ([3]; Caprylocaproyl polyoxyl-8 glycerides NF (LABRASOL ®)): Sparingly soluble
Cortexolone-17α-propionate Solubility at Room Temperature ([3]; Ethanol (96°)): Highly soluble
Cortexolone-17α-propionate Solubility at Room Temperature ([3]; Ethanol/propylene glycol (1:1) v:v): Soluble
Cortexolone-17α-propionate Solubility at Room Temperature ([3]; Ethanol/propylene glycol/TRANSCUTOL ® (1:1:1) v:v): Very soluble
Cortexolone-17α-propionate Solubility at Room Temperature ([3]; Isopropyl myristate): Insoluble
Cortexolone-17α-propionate Solubility at Room Temperature ([3]; Isopropyl palmitate): Insoluble
Cortexolone-17α-propionate Solubility at Room Temperature ([3]; Propylene glycol): Sparingly soluble
Cortexolone-17α-propionate Solubility at Room Temperature ([3]; TRANSCUTOL ®/water (1:1) v:v): Insoluble
Cortexolone-17α-propionate Solubility at Room Temperature ([3]; TRANSCUTOL ®/water/ethanol (1:1:1) v:v): Soluble
Cortexolone-17α-propionate Solubility at Room Temperature ([3]; TRANSCUTOL ®): Very soluble
Cortexolone-17α-propionate Solubility at Room Temperature ([3]; Water/propylene glycol/TRANSCUTOL ® (1:1:1) v:v): Insoluble
Cortexolone-17α-propionate Solubility at Room Temperature ([3]; Water/propylene glycol/TRANSCUTOL ® (1:1:2) v:v): Soluble
Cortexolone-17α-propionate Solubility at Room Temperature ([3]; Water): Insoluble
Structure (SMILES): CCC(=O)O[C@]1(C(=O)CO)CC[C@H]2[C@@H]3CCC4=CC(=O)CC[C@]4(C)[C@H]3CC[C@@]21C [Cortexolone-17α-propionate, 17α-propionyloxy-21-hydroxy-pregna-4-ene-3,20-dione]

Permeation rate [2]: 141 ± 17 ng/mL/h
Skin concentration [2]: 89.4 ± 4.6 µg/g
Structure (SMILES): CC(=O)O[C@]1(C(C)=O)CC[C@H]2[C@@H]3C=C(Cl)C4=CC(=O)[C@@H]5C[C@@H]5[C@]4(C)[C@H]3CC[C@@]21C [Cyproterone Acetate, cyproterone acetate, reference compound]

Structure (SMILES): CC(C)(C)NC(=O)[C@H]1CC[C@H]2[C@@H]3CC[C@H]4NC(=O)C=C[C@]4(C)[C@H]3CC[C@]12C [finasteride]
Change from Baseline in non-vellus TAHC at Month 6 (AGA [4]; Combined (study 087 + 089), target area 5.1 cm^2): 62.4
Change from Baseline in non-vellus TAHC at Month 6 (AGA [4]; Study 087, target area 1-inch diameter circle, 5.1 cm^2, 1 mg per os once daily): 69.5
Change from Baseline in non-vellus TAHC at Month 6 (AGA [4]; Study 089, target area 1-inch diameter circle, 5.1 cm^2, 1 mg per os once daily): 58.4
decrease of serum DHT as well as scalp DHT compared to baseline [5]: up to 70%
Change from Baseline in non-vellus TAHC at Month 6, recalculated over a target area of 1 cm^2 (AGA [6]; Combined (study 087 + 089)): 12.2
Change from Baseline in non-vellus TAHC at Month 6, recalculated over a target area of 1 cm^2 (AGA [6]; Study 087): 13.6
Change from Baseline in non-vellus TAHC at Month 6, recalculated over a target area of 1 cm^2 (AGA [6]; Study 089): 11.5
patients with adverse events (decreased libido, erectile dysfunction, ejaculation disorders, decreased volume of ejaculate) [7]: 1%
